{
  "source": "patent US8420777B2",
  "about": "“Compounds that inhibit Hsp90 protein-protein interactions with IAP proteins” (University of Massachusetts, priority 2004, dated 2013)",
  "key": {"[1]": {"tested_on": "normal lung fibroblast LU18 cells", "assay": "Trypan blue exclusion in normal cells", "type": "cell-based", "details": "150 μM, 24 hours"}, "[2]": {"tested_on": "PC3 tumors", "assay": "Peptide accumulation within the tumor mass, fluorescence microscopy", "type": "in vivo, SCID/beige mice", "details": "intraperitoneally, one hour after administration", "description": "To determine whether the survivin peptidomimetic accumulates intracellularly in vivo, animals carrying flank PC3 tumors were injected intraperitoneally with saline, or the cell-permeable retro-inverso K79-L87 survivin peptide P3. One hour after administration, the animals were sacrificed, and the tumors were carefully excised and analyzed for peptide accumulation within the tumor mass by fluorescence microscopy."}, "[3]": {"biological_target": "T1, Hsp 27 (Homo sapiens, UniProt P04792)", "T1 construct": "used to fractionate Raji cell extracts; endogenous in cells; host or cells: Raji B lymphoma cells", "T1 sequence (P04792 whole entry)": "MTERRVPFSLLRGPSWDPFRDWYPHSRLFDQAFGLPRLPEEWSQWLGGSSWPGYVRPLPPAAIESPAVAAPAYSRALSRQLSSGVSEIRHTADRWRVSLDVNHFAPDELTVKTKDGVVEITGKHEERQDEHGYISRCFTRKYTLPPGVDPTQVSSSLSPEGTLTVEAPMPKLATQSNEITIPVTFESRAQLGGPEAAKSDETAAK", "assay": "Affinity chromatography of Raji cell extracts on Survivin peptide column", "type": "binding", "source_text": "(§1) A Survivin Ile^74-Leu^87 peptide (SEQ ID NO:4) containing a binding site for Hsp90 was immobilized onto a Sulfolink™ Coupling Gel (Pierce, Rockport, Ill.), and used to fractionate Raji cell extracts. Proteins were identified in the flow trough (FT) or eluate (E) by Western blotting with the indicated antibodies. Hsp90 and Hsp70 clearly bound the Survivin peptide including residues Ile^74-Leu^87. The anti-Hsp70 antibodies were obtained from Abcam, Cambridge, Mass. (cat. No. ab6535)."}, "[4]": {"tested_on": "Hsp70", "assay": "Affinity chromatography of Raji cell extracts on Survivin peptide column", "type": "binding", "details": "eluate by Western blotting", "source_text": "as §1"}, "[5]": {"tested_on": "Hsp90", "assay": "Affinity chromatography of Raji cell extracts on Survivin peptide column", "type": "binding", "details": "eluate by Western blotting", "source_text": "as §1"}, "[6]": {"tested_on": "HeLa, MDA-MB231, MCF-7, PANC-1 tumor cell lines", "assay": "MTT cell viability with retro-inverso peptides", "type": "cell-based", "details": "increasing concentrations, 24 hours", "description": "For determination of apoptosis by hypodiploid DNA content, various tumor cell lines were incubated with increasing concentrations of the cell permeable control scrambled (SEQ ID NO:25) or Survivin peptide (SEQ ID NO:19), harvested after 24 hours (floaters plus attached cells) fixed in 70% ethanol, and stained with 10 μg/ml propidium iodide plus 100 μg/ml RNAse A and 0.05% Triton™ X-100 in PBS, pH 7.4. Cultures were analyzed for DNA content by flow cytometry. For colorimetric quantification of cell viability, an MTT assay was used. […] Decrease in cell viability was analyzed for loss of colorimetric absorption at OD405.\nTo increase the stability in vivo of the cell permeable Survivin K79-L87 sequence, we synthesized peptidomimetic variants in which the cell penetrating Antennapedia sequence and the Survivin active sequence K79-L87 were synthesized using D-amino acid ([…]) and in the reverse order (inverso sequence). […] To test the ability of the retro-inverso cell permeable sequences to induce apoptosis in cancer cells, a panel of tumor cell lines were analyzed by the cell viability MTT assay after incubation with the indicated increasing concentrations of the P3 (Survivin) or P4 (control) retro-inverso cell permeable peptides."}, "[7]": {"tested_on": "HCT116, HeLa, MCF-7, PANC-1, PC3 tumor cells", "assay": "Trypan blue exclusion in tumor cell lines", "type": "cell-based", "details": "150 μM, 24 hours", "description": "To study the specificity of the retro-inverso P3 and P4 sequences described in Example 17, we incubated a variety of tumor cell lines with the cell permeable retro-inverso P3 and P4 peptides (150 μM), and stained the cultures after 24 hours by trypan blue (Sigma) exclusion. Cells that fail to exclude the blue dye were cells that lost cell viability and plasma membrane integrity."}},
  "note": "Square brackets hold non-standard residues; d marks the D form. Ends that are not written are not given here.",
  "data": [
    {"compound": "CSCC[C@@H](NC(=O)[C@@H](CCCCN)NC(=O)[C@@H](Cc1c[nH]c2ccccc12)NC(=O)[C@@H](CCCCN)NC(=O)[C@@H](CCCCN)NC(=O)CCCCCNC(=O)CCCC[C@@H]1SC[C@@H]2NC(=O)N[C@@H]21)C(=O)N[C@H](CCCNC(=N)N)C(=O)N[C@H](CCCNC(=N)N)C(=O)N[C@H](CC(N)=O)C(=O)N[C@H](CCC(N)=O)C(=O)N[C@H](Cc1ccccc1)C(=O)N[C@H](Cc1c[nH]c2ccccc12)C(=O)N[C@@H](C(=O)N[C@H](CCCCN)C(=O)N[C@@H](C(=O)N[C@H](CCC(N)=O)C(=O)N[C@H](CCCNC(=N)N)C(=O)N[C@H](CC(C)C)C(=O)N[C@H](Cc1ccccc1)C(=O)N[C@H](C)C(=O)N[C@H](CS)C(=O)NCC(=O)N[C@H](CO)C(=O)N[C@H](CO)C(=O)N[C@H](Cc1c[nH]cn1)C(=O)N[C@H](CCCCN)C(N)=O)C(C)C)C(C)C", "note": "[P3]", "values": [
      {"measurement": "viability of normal cells (trypan blue exclusion)", "setting": "[1]", "value": "neither the Survivin P3 nor the control P4 peptide resulted in decreased viability"},
      {"measurement": "intracellular accumulation in tumor cells", "setting": "[2]", "value": "showed intracellular fluorescence"}
    ]},
    {"compound": "IDDHKKHSSGCAFL [SEQ ID NO:4]", "values": [
      {"measurement": "Hsp 27 binding to peptide column", "setting": "[3]", "value": "did not bind"},
      {"measurement": "Hsp70 binding to peptide column", "setting": "[4]", "value": "clearly bound"},
      {"measurement": "Hsp90 binding to peptide column", "setting": "[5]", "value": "clearly bound"}
    ]},
    {"compound": "KKWKMRRNQFWVIWQRGHSFCALKS-CONH2 ([dK][dK][dW][dK][dM][dR][dR][dN][dQ][dF][dW][dV][dI][dW][dQ][dR]G[dH][dS][dF][dC][dA][dL][dK][dS]-NH2; also: retro-inverso) [P4, retro-inverso control scrambled peptide]", "values": [
      {"measurement": "cell viability (MTT)", "setting": "[6]", "value": "no decrease in cell viability"},
      {"measurement": "tumor cell viability (trypan blue exclusion)", "setting": "[7]", "value": "did not reduce tumor cell viability"}
    ]}
  ]
}
